Data published in ChEMBL document CHEMBL1127232, “Synthesis and vasorelaxant activity of N-imino-2-(benzopyran-4-yl)pyridine K+ channel openers” (Bioorg Med Chem Lett, 1994).

How the values were obtained:
Rattus norvegicus [1] = organism: Rattus norvegicus; experiment: Intrinsic activity in rat aorta was determined; assay type: functional
Rattus norvegicus [2] = organism: Rattus norvegicus; experiment: Negative logarithm of the molar concentration required to relax rat aorta precontracted with 30 mM KCL by 50% of intrinsic activity; assay type: functional

Structure (SMILES)	Intrinsic activity (Rattus norvegicus [1]) [%]	EC50 (Rattus norvegicus [2]) [nM]
N#Cc1ccc2c(c1)C(c1cccc[n+]1[O-])=CC(CF)(CF)O2	71.1	16.6
O=[N+]([O-])c1ccc2c(c1)C(c1cccc[n+]1[O-])=CC(CF)(CF)O2	66.3	1.74
O=C([N-][n+]1ccccc1C1=CC(CF)(CF)Oc2ccc([N+](=O)[O-])cc21)Nc1ccccc1	89.5	9120
N#C[N-][n+]1ccccc1C1=CC(CF)(CF)Oc2ccc(C(F)(F)F)cc21	62.3	9.55
CC1(C)C=C(c2cccc[n+]2[N-]C#N)c2cc(C#N)ccc2O1	63.2	97.7
N#C[N-][n+]1ccccc1C1=CC(CF)(CF)Oc2ccc([N+](=O)[O-])cc21	72.7	4.57
O=[N+]([O-])[N-][n+]1ccccc1C1=CC(CF)(CF)Oc2ccc([N+](=O)[O-])cc21	98.5	1000
O=C([N-][n+]1ccccc1C1=CC(CF)(CF)Oc2ccc([N+](=O)[O-])cc21)c1ccccc1		> 10000
N#C[N-][n+]1ccccc1C1=CC(CF)(CF)Oc2ccc(C(F)(F)C(F)(F)F)cc21	71.9	2.95
N#C[N-][n+]1ccccc1C1=CC(CF)(CF)Oc2ccc(C(F)(F)C(F)(F)C(F)(F)F)cc21	74.6	17.8
CC1(C)C=C(c2cccc[n+]2[O-])c2cc(C#N)ccc2O1	78.2	24.5
N#C[N-][n+]1ccccc1C1=CC(CF)(CF)Oc2ccc(C#N)cc21	76.9	51.3
CC(=O)[N-][n+]1ccccc1C1=CC(CF)(CF)Oc2ccc([N+](=O)[O-])cc21		> 10000
CS(=O)(=O)[N-][n+]1ccccc1C1=CC(CF)(CF)Oc2ccc([N+](=O)[O-])cc21	74.2	3020
CC1(C)Oc2ccc(C#N)cc2[C@@H](N2CCCC2=O)[C@@H]1O [LEVCROMAKALIM]	72.5	162
